Data on 14 compounds can be found in patent publication US8552201B2, “5, 6-bisaryl-2-pyridine-carboxamide derivatives, preparation and application thereof in therapeutics as urotensin II receptor antagonists” (Sanofi, priority 2006, dated 2013).

SMILES strings stand for the structures. Where a name gives a salt, the structure may show the parent alone.

The target in one test is T1, human GPR14 receptor (Homo sapiens, UniProt Q9UKP6).
T1 construct: expressed in transfected cells; host or cells: CHO cells (CHOGPR14)
T1 sequence (Q9UKP6 1-389): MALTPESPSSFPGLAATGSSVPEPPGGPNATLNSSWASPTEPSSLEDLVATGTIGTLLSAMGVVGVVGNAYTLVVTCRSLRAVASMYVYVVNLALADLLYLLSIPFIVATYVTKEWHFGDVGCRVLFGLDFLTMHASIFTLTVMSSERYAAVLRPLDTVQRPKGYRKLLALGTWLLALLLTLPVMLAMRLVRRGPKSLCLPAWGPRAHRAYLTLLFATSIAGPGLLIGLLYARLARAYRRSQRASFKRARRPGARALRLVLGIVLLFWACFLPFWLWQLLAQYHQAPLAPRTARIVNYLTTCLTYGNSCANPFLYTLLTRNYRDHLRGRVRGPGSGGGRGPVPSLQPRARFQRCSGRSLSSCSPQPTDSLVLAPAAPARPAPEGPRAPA
Description: FlipR test of intracellular calcium mobilization (CHO GPR14 cells, urotensin II 3 nM). It is filed as cell-based. As to conditions: CHOGPR14 cells, inhibition of urotensin II (3 nM final) induced Ca2+ increase, Fluo-4AM. From the text:
(§1) The compounds according to the invention have undergone pharmacological testing for determining the properties of the compounds of the invention, including in particular: • a test in vitro of intracellular calcium mobilization (FlipR test) employing urotensin II antagonists (the compounds of the present invention) of the human GPR14 receptor, • a function test of contraction of rat aorta rings, also employing urotensin II antagonists represented by the compounds of the present invention.
1. FlipR (Fluorometric Imaging Plate Reader) Protocol
The purpose is to measure the activation of the GPR14 receptor by human urotensin II.
GPR14 is a Gq-coupled receptor with 7 transmembrane domains. Its activation by a specific ligand causes an increase in Ca^2+ in the cell via the PLC (Phospholipase C), IP3 (Inositol-1,4,5-triphosphate) DAG (Diacylglycerol) pathway. The increase in Ca^2+ in the cell is measured by means of the Fluo4AM permeating probe (mono-excitation, mono-emission probe) which binds to free Ca^2+ and emits at 520 nm. The free probe is non-fluorescent in the absence of Ca^2+.
1) Seeding of the cells on D−1 (Day−1) or D−2
2) Incorporation/loading (D0) of the probe (1 h)
3) Addition of the products to the FlipR and measurement
4) Addition of the ligand to the FlipR and measurement in the presence of the products
5) Processing and exporting the data
The cells are cultivated in complete medium in Flask T225. For the experiments, the cells are transplanted in 200 μl of culture medium in 96-well (black, transparent-bottom) plates at a rate of 60 000 cells/well for use on D+1 or 40 000 cells/well for use on D+2.
The Fluo-4AM is prepared at 20 mM then aliquots are taken (50 μl) and stored at −20° C. away from the light. A solution of pluronic acid at 200 mg/ml in DMSO is also prepared (it has a shelf life of one week at room temperature away from the light).
The cells are charged with the Fluo-4AM+pluronic acid mixture (aliquot 50 μl+50 μl of pluronic acid) diluted to 1/100 in the measurement buffer.
After washing the wells with 150 μl of measurement buffer (cf. annex), the cells are then charged as follows: • distribution of 100 μl of measurement buffer in each well • addition of 10 μl of the Fluo-4AM+pluronic acid mixture diluted to 1/100.
The cells are incubated for 1 h at 37° C. away from the light, in an incubator in the presence of 5% CO2.
The cells are then washed 3 times with 150 μl of measurement buffer to remove the excess of the probe. A volume of 150 μl of buffer is added to each well at the end of washing.
After incubating the plates for 20 min at room temperature away from the light, they are placed in the FlipR for measurement of fluorescence.
The level of basic incorporation of the Fluo-4 is checked for each plate (sd<10%) before the first injection.
After stabilization of the basic signal, the GPR14 inhibiting compounds are injected by the FlipR under a volume of 50 μl from a dilution plate effected with Biomek 2000 in measurement buffer. […] Data recording is carried out continuously throughout the experiment.
For each plate, the basic fluorescence before injection of the compounds is standardized by the “spatial uniformity correction” function of the FlipR. The values of fluorescence measured just before injection of urotensin II (min) and those of the fluorescence measured at the peak of the effect of urotensin II (max) are exported under Excel. In each plate, a series of wells is treated with urotensin alone in the absence of inhibitor compound. The min and max fluorescence values for these wells are averaged for defining 100% effect of urotensin II. The percentage inhibition calculated for each concentration of inhibitor is calculated as follows: • for each well with Uro II (urotensin II)+inhibitor, calculation of the delta product value=max−min • for the well with Uro II alone, calculation of the value delta Uro II (average max−average min) […]
Background: A change in cytosolic calcium serves as a functional read-out for many receptors and channels.

Test [1] addresses T2, urotensin II receptors (rat aorta rings) (Rattus norvegicus, UniProt P49684).
T2 construct: The aortas are removed, washed and, after removing the endothelium, are cut into 4 rings; from tissue; host or cells: rat thoracic aorta rings, endothelium removed (Sprague-Dawley)
T2 sequence (P49684 1-386): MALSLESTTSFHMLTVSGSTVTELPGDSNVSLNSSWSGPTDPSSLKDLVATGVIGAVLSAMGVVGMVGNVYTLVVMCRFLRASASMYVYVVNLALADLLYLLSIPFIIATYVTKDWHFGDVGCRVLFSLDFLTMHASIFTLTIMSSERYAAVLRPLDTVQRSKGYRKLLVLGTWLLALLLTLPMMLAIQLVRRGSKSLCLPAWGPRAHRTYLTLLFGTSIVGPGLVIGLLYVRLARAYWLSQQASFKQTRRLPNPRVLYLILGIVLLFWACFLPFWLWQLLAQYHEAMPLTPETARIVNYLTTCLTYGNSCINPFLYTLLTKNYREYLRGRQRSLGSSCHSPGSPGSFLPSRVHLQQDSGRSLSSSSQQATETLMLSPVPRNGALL
Nature of the test: Contraction of rat aorta rings induced by human urotensin II. As to conditions: endothelium-denuded Sprague-Dawley rat aorta rings, antagonist added 30 min before urotensin II, single concentration.
Text: as §1
2. Contraction of Rat Aorta
Male Sprague-Dawley rats (400-500 g; C. River, France) are anaesthetized with 6% sodium pentobarbital (Ceva SantéAnimale) by intraperitoneal injection (0.4-0.5 ml), and then euthanized by exsanguination. The aortas are removed, washed and, after removing the endothelium, are cut into 4 rings of about 0.2-0.3 cm. Each fragment is placed in a container for isolated organs, containing 20 mL of Krebs solution with the following composition (mM): NaCl 118; KCl 4.7; MgCl2 1.2; CaCl2 2.6; NaHCO3 25; glucose 11.1; (pH=7.4).
The tissue, maintained at 37° and aerated with a stream of carbogen (95% O2-5% CO2), is connected to a Grass FT03 isometric sensor under a basic strain of 2 g, and to a Gould series 6600 amplifier for recording the variations in strain. Data acquisition is effected automatically on an HP Compaq PC using IOX software (version 2.2) from the company Emka.
After stabilization for 60 min, the viability of the preparation is tested by prestimulation with 60 mM of KCl. This contraction is repeated a second time and the strain that developed will serve as reference (100%) for standardizing the response to urotensin II.
The curve of concentration v. contractile response to urotensin II is then constructed cumulatively until a maximum response is obtained.
A single concentration-response curve is recorded owing to the desensitization effects induced by urotensin II.
The antagonists or the vehicle (DMSO 0.15% maximum) are added to the container 30 min before the agonist.
Human urotensin II is obtained from Bachem Ltd (UK) and is dissolved in 0.1% of BSA.
The responses are expressed as percentage of the maximum contraction observed with KCl. The results represent the mean+/−sem of the individual responses. N corresponds to the number of animals per batch.
Analysis of the sigmoid curves using the Everstat software (De Lean A, Munson P J, Rodbard D., Am J Physiol 1978; 235(2): E97-102.) permitted the EC50 (concentration producing 50% of the maximum response) and the Emax (maximum effect) to be determined.
To evaluate the potency of the antagonists based on a single concentration, the pKb were calculated according to the equation: pKb=−log [antagonist]M+log(concentration-ratio−1) (Furchgott R F, Blaschko H, Muscholl E, editors. Handbook of Exp Pharmacol, Catecholamines, Springer, Berlin Heidelberg N.Y.; 1972; 33:283-335) where concentration-ratio is the EC50 of the agonist in the presence of the antagonist divided by the EC50 of the agonist in the absence of the antagonist.
If several concentrations of antagonist are tested, the pA2 (±confidence limits) is calculated by the Schild plot method (Arunlakshana O and Schild H O, Br J Pharmacol, 1959; 14:48-58).

As to `CCc1ccccc1-c1ccc(C(=O)NC2(C(=O)O)CCCCC2)nc1-c1ccc(Cl)c(OCCCN(C)C)c1` [compound 67], the IC50 at human GPR14 receptor came out at 13 nM. This compound also showed a Kb in test [1] of 200 nM.
For `Cc1ccccc1-c1nc(N)c(C(=O)NC2(C(=O)O)CCCCC2)nc1-c1ccc(Cl)c(OCCCN(C)C)c1` [compound 129, 1-({[3-amino-6-{4-chloro-3-[3-(dimethylamino)propoxy]phenyl}-5-(2-methylphenyl)pyrazin-2-yl]carbonyl}amino)cyclohexanecarboxylic acid hydrochloride] the same measures were 15 nM and 158 nM.
As to `Cc1ccccc1-c1ccc(C(=O)N[C@@H](CC(=O)O)C(C)C)nc1-c1ccc(Cl)c(OCCCN(C)C)c1` [compound 37], the IC50 on human GPR14 receptor was determined as 72 nM. Further, in test [1], the Kb was 31.6 nM.
With `Cc1ccccc1-c1ccc(C(=O)NC2(C(=O)O)CCCCCC2)nc1-c1ccc(Cl)c(OCCCN(C)C)c1` [compound 71], the IC50 on human GPR14 receptor stood at 24 nM. The compound further showed a Kb in test [1] of 501 nM.
Take `Cc1cc(C)n(-c2ccc(C(=O)NC3(C(=O)O)CCCCC3)nc2-c2ccc(Cl)c(OCCCN(C)C)c2)n1` [compound 75, 1-({[6-{4-Chloro-3-[3-(dimethylamino)propoxy]phenyl}-5-(3,5-dimethyl-1H-pyrazol-1-yl)pyridin-2-yl]carbonyl}amino)cyclohexanecarboxylic acid hydrochloride]: on human GPR14 receptor, the IC50 was 21 nM. Besides, the Kb in test [1] is 251 nM.
For `COc1ccc(-c2ccc(C(=O)NC3(C(=O)O)CCCCC3)nc2-c2ccc(Cl)c(OCCCN(C)C)c2)c(Cl)c1` [compound 79] the same measures were 31 nM and 158 nM.
Take `CN(C)CCCOc1cc(-c2nc(C(=O)NC3(C(=O)O)CCCCC3)ccc2-c2ncc(Cl)cc2Cl)ccc1Cl` [compound 65, 1-{[(3,5-Dichloro-2′-{4-chloro-3-[3-(dimethylamino)propoxy]phenyl}-2,3′-bipyridin-6′-yl)carbonyl]amino}cyclohexanecarboxylic acid hydrochloride]: the IC50 at human GPR14 receptor worked out at 32 nM. Also, the Kb in test [1] is 316 nM.
In the same order, the values of `Cc1cccnc1-c1ccc(C(=O)NC2(C(=O)O)CCCCC2)nc1-c1ccc(Cl)c(OCCCN(C)C)c1` [compound 58] are 28 nM and 251 nM.
For `Cc1ccccc1-c1ccc(C(=O)NC2(C(=O)O)C3CC4CC(C3)CC2C4)nc1-c1ccc(Cl)c(OCCCN(C)C)c1` (stereo not shown) [Compound No. 18, 2-({[6-{4-Chloro-3-[3-(dimethylamino)propoxy]phenyl}-5-(2-methylphenyl)pyridin-2-yl]carbonyl}amino)adamantane-2-carboxylic acid hydrochloride] the same measures were 19 nM and 316 nM.
For `Cc1ccc(-c2ccc(C(=O)NC3(C(=O)O)CCCCC3)nc2-c2ccc(Cl)c(OCCCN(C)C)c2)c(C)c1` [compound 66, 1-({[6-{4-Chloro-3-[3-(dimethylamino)propoxy]phenyl}-5-(2,4-dimethylphenyl)pyridin-2-yl]carbonyl}amino)cyclohexanecarboxylic acid hydrochloride] the same measures were 4.2 nM and 200 nM.
`Cc1ccc(-c2ncc(C(=O)NC3(C(=O)O)CCCCC3)nc2-c2ccc(Cl)c(OCCCN(C)C)c2)c(C)c1` [compound 123]: on human GPR14 receptor, the IC50 was found to be 4.2 nM. The same compound showed a Kb in test [1] of 316 nM.
For `Cc1ncccc1-c1ccc(C(=O)NC2(C(=O)O)CCCCC2)nc1-c1ccc(Cl)c(OCCCN(C)C)c1` [compound 61] the same measures were 9 nM and 79.4 nM.
In the same order, the values of `Cc1ccc(C)c(-c2ccc(C(=O)NC3(C(=O)O)CCCCC3)nc2-c2ccc(Cl)c(OCCCN(C)C)c2)c1` [compound 70] are 32 nM and 631 nM.
For `Cc1ccc(C(C)C)cc1-c1ccc(C(=O)NC2(C(=O)O)CCCCC2)nc1-c1ccc(Cl)c(OCCCN(C)C)c1` [compound 120] the same measures were 16 nM and 79.4 nM.

One may read the IC50 as the concentration needed to halve the response being measured. As a reminder, the Kb is the equilibrium dissociation constant of an antagonist, usually derived from a functional assay.
